Consider 27 molecules from patent US20230203004A1, “RSV INHIBITING 3-SUBSTITUTED QUINOLINE AND CINNOLINE DERIVATIVES” (Janssen Sciences Ireland Unlimited Company, priority 2020, published 2023).

The structures appear in SMILES notation.

One series concerns rgRSV224 virus. The series is described as follows: Antiviral activity: rgRSV224 (GFP) replication in HeLa cells. The format is cell-based, respiratory syncytial virus (RSV). The following applies: human respiratory syncytial virus, HeLa, 72 h, read-out: RSV HELA EC50, HeLa cells, rgRSV224 MOI = 1, GFP expression three days post-virus exposure; averaged data of several repeat experiments. The method in brief: (§1)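 HeLa cells infected with GFP-expressing rgRSV224 at MOI 1 in RPMI/10% FBS, 0.05% DMSO, with 9 serial 4-fold compound dilutions; 3 days at 37 °C, GFP read by laser microscopy for EC50. Cytotoxicity: uninfected HeLa cells, 3 days, cellular ATP (ATPlite) for CC50.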

The nature of series [1]: Cytotoxicity in HeLa cells (ATP content, ATPlite kit). The format is cell-based. The following applies: human, TOX HELA CC50. Summed up:
as §1

`[2H]C([2H])([2H])Oc1cc(C(=O)NC[C@](O)(c2cc(C(C)(C)O)c(F)c(-c3ccc(F)cc3)n2)C2CC2)cc2cc(C)nnc12` [compound 290]: the EC50 – broadly, the midpoint of the concentration-response curve – in the series with rgRSV224 virus came out at 0.00021 µM. In series [1], the 50% cytotoxic concentration (CC50) (in general, the concentration at which the toxic effect on the cells reaches its halfway point) at 3 days came out at 28 µM.
The like results for `Cc1cc2cc(C(=O)NC[C@](O)(c3cc(C(C)(C)O)cc(-c4ccc(F)cc4)n3)C(F)(F)F)cc(OC3CC3)c2nn1` [compound 291, (-)Cyclopropoxy-3-Methyl-N-(3,3,3-Trifluoro-2-(6-(4-Fluorophenyl)-4-(2-Hydroxypropan-2-yl)Pyridin-2-yl)-2-Hydroxypropyl)Cinnoline-6-Carboxamide] were, in that order, 0.015 µM and 57 µM.
With `COc1cc(C(=O)NC[C@](O)(c2cc(C(C)(C)O)c(F)c(-c3ccc(F)cc3)n2)C(F)F)cc2cc(C(F)F)nnc12` [compound 292, (-)-N-(3,3-difluoro-2-(5-fluoro-6-(4-fluorophenyl)-4-(2-hydroxypropan-2-yl)pyridin-2-yl)-2-hydroxypropyl)-3-(difluoromethyl)-8-methoxycinnoline-6-carboxamide], the EC50 in the series with rgRSV224 virus amounted to 0.012 µM. The molecule further came in with a 50% cytotoxic concentration (CC50) at 3 days in series [1] of 29 µM.
On the same counts, the results for `COc1cc(C(=O)NC[C@](O)(c2cc(C(C)(C)O)c(F)c(-c3ccc(F)cc3)n2)C(F)F)cc2cc(C3CC3)nnc12` [compound 293, (-)Cyclopropyl-N-(3,3-Difluoro-2-(5-Fluoro-6-(4-Fluorophenyl)-4-(2-Hydroxypropan-2-yl)Pyridin-2-yl)-2-Hydroxypropyl)-8-Methoxycinnoline-6-Carboxamide] are 0.011 µM and 15 µM.
On the same counts, the results for `COc1cc(C(=O)NC[C@](O)(c2cc(C(C)(C)O)c(F)c(-c3ccc(F)cc3)n2)C2(F)CC2)cc2cc(C)nnc12` [compound 296] are 0.002 µM and 56 µM.
The like results for `COc1cc(C(=O)NC[C@@](O)(c2cc(C(C)(C)O)c(F)c(-c3ccc(F)cc3)n2)C2(F)CC2)cc2cc(C)nnc12` [compound 297] were, in that order, 0.058 µM and 45 µM.
Regarding `COc1cc(C(=O)NC[C@](O)(c2cc(C(C)(C)O)c(F)c(-c3ccc(F)cc3)n2)C2(C)CC2)cc2cc(C)nnc12` [compound 298], the 50% effective concentration (EC50) in the series on rgRSV224 virus was determined as 0.0026 µM. In series [1], this molecule showed a half-maximal cytotoxic concentration (CC50) at 3 days of 52 µM.
On the same counts, the results for `COc1cc(C(=O)NC[C@@](O)(c2cc(C(C)(C)O)c(F)c(-c3ccc(F)cc3)n2)C2(C)CC2)cc2cc(C)nnc12` [compound 299] are 0.093 µM and 12 µM.
The like results for `COc1cc(C(=O)NC[C@](O)(c2cc(C(C)(C)O)cc(-c3ccc(F)cc3)n2)C2CC2)cc2cc(C)nnc12` [compound 304] were, in that order, 0.0021 µM and 23 µM.
On the same counts, the results for `COc1cc(C(=O)NC[C@@](O)(c2cc(C(C)(C)O)cc(-c3ccc(F)cc3)n2)C2CC2)cc2cc(C)nnc12` [compound 305] are 0.642 µM and 41 µM.
In the case of `COc1cc(C(=O)NC[C@](O)(c2cc(C(C)(C)O)cc(-c3ccc(F)cc3)n2)C(C)(C)F)cc2cc(C)nnc12` [compound 306], the EC50 with rgRSV224 virus amounted to 0.001 µM. In series [1], this molecule registered a CC50 at 3 days of 50 µM.
As to `COc1cc(C(=O)NC[C@@](O)(c2cc(C(C)(C)O)cc(-c3ccc(F)cc3)n2)C(C)(C)F)cc2cc(C)nnc12` [compound 307], the EC50 in the series with rgRSV224 virus came to 0.04 µM. In series [1], this molecule came in with a CC50 at 3 days of 43 µM.
For the molecule `Cc1cc2cc(C(=O)NC[C@](O)(c3cc(C(C)(C)O)c(F)c(-c4ccc(F)cc4)n3)C(F)F)cc(OC3CC3)c2nn1` [compound 308, (-)Cyclopropoxy-N-(3,3-Difluoro-2-(5-Fluoro-6-(4-Fluorophenyl)-4-(2-Hydroxypropan-2-yl)Pyridin-2-yl)-2-Hydroxypropyl)-3-Methylcinnoline-6-Carboxamide], in the series with rgRSV224 virus, the EC50 was 0.0023 µM. In series [1], this molecule registered a CC50 at 3 days of 38 µM.
Consider `COc1cc(C(=O)NC[C@](O)(c2cc(C(C)(C)O)cc(-c3ccc(F)cc3)n2)C(C)(F)F)cc2cc(C)nnc12` [compound 309, (-)-N-(3,3-difluoro-2-(6-(4-fluorophenyl)-4-(2-hydroxypropan-2-yl)pyridin-2-yl)-2-hydroxybutyl)-8-methoxy-3-methylcinnoline-6-carboxamide], for which the EC50 in the series with rgRSV224 virus stood at 0.011 µM. The molecule also came in with a CC50 at 3 days in series [1] of 34 µM.
The like results for `COc1cc(C(=O)NC[C@@](O)(c2cc(C(C)(C)O)cc(-c3ccc(F)cc3)n2)C(C)(F)F)cc2cc(C)nnc12` [compound 310, (+)-N-(3,3-difluoro-2-(6-(4-fluorophenyl)-4-(2-hydroxypropan-2-yl)pyridin-2-yl)-2-hydroxybutyl)-8-methoxy-3-methylcinnoline-6-carboxamide] were, in that order, greater than 1.25 µM and 55 µM.
On the same counts, the results for `[2H]C([2H])([2H])c1cc2cc(C(=O)NC[C@](O)(c3cc(C(C)(C)O)c(F)c(-c4ccc(F)cc4)n3)C(F)(F)F)cc(OC)c2nn1` [compound 311, (-)Methoxy-3-(Methyl-d3)-N-(3,3,3-Trifluoro-2-(5-Fluoro-6-(4-Fluorophenyl)-4-(2-Hydroxypropan-2-yl)Pyridin-2-yl)-2-Hydroxypropyl)Cinnoline-6-Carboxamide] are 0.0013 µM and 42 µM.
The like results for `Cc1cc2cc(C(=O)NC[C@](O)(c3cc(C(C)(C)O)c(F)c(-c4ccc(F)cc4)n3)C(F)(F)F)cc(OC(F)F)c2nn1` [compound 312, (-)(Difluoromethoxy)-3-Methyl-N-(3.3.3-Trifluoro-2-(5-Fluoro-6-(4-Fluorophenyl)-4-(2-Hydroxypropan-2-yl)Pyridin-2-yl)-2-Hydroxypropyl)Cinnoline-6-Carboxamide] were, in that order, 0.0028 µM and 13 µM.
For the molecule `COc1cc(C(=O)NC[C@](O)(c2cc(C(C)(C)O)c(F)c(-c3ccc(F)cc3)n2)C(C)(F)F)cc2cc(C)nnc12` [compound 313, (-)-N-(3,3-difluoro-2-(5-fluoro-6-(4-fluorophenyl)-4-(2-hydroxypropan-2-yl)pyridin-2-yl)-2-hydroxybutyl)-8-methoxy-3-methylcinnoline-6-carboxamide], the EC50 in the series on rgRSV224 virus turned out to be 0.001 µM. In series [1], this molecule registered a CC50 at 3 days of 42 µM.
On to `COc1cc(C(=O)NC[C@@](O)(c2cc(C(C)(C)O)c(F)c(-c3ccc(F)cc3)n2)C(C)(F)F)cc2cc(C)nnc12` [compound 314, (+)-N-(3,3-difluoro-2-(5-fluoro-6-(4-fluorophenyl)-4-(2-hydroxypropan-2-yl)pyridin-2-yl)-2-hydroxybutyl)-8-methoxy-3-methylcinnoline-6-carboxamide], for which the EC50 in the series with rgRSV224 virus came to 0.168 µM. The CC50 at 3 days in series [1] turned out to be 35 µM.
On the same counts, the results for `[2H]C([2H])(NC(=O)c1cc(OC)c2nnc(C)cc2c1)[C@@](O)(c1cc(C(C)(C)O)c(F)c(-c2ccc(F)cc2)n1)C1CC1` [compound 315] are 0.047 µM and 27 µM.
The like results for `[2H]C([2H])(NC(=O)c1cc(OC)c2nnc(C)cc2c1)[C@](O)(c1cc(C(C)(C)O)c(F)c(-c2ccc(F)cc2)n1)C1CC1` [compound 316] were, in that order, 0.00034 µM and 33 µM.
The like results for `Cc1cc2cc(C(=O)NC[C@](O)(c3cc(C(C)(C)O)c(F)c(-c4ccc(F)cc4)n3)C(F)(F)F)cc(OC3CC3)c2nn1` [compound 318, (-)Cyclopropoxy-3-Methyl-N-(3.3.3-Trifluoro-2-(5-Fluoro-6-(4-Fluorophenyl)-4-(2-Hydroxypropan-2-yl)Pyridin-2-yl)-2-Hydroxypropyl)Cinnoline-6-Carboxamide] were, in that order, 0.0014 µM and 22 µM.
On to `COc1cc(C(=O)NC[C@](O)(c2cc(C(C)(C)O)c(F)c(-c3ccc(F)cc3)n2)C(F)(F)F)cc2cc(C3CC3)cnc12` [compound 321, (-)Cyclopropyl-8-Methoxy-N-(3,3,3-Trifluoro-2-(5-Fluoro-6-(4-Fluorophenyl)-4-(2-Hydroxypropan-2-yl)Pyridin-2-yl)-2-Hydroxypropyl)Quinoline-6-Carboxamide], for which the EC50 in the series with rgRSV224 virus stood at 0.054 µM. In series [1], this molecule came in with a CC50 at 3 days of 13 µM.
On the same counts, the results for `COc1cc(C(=O)NC[C@](O)(c2cc(C(C)(C)O)c(F)c(-c3ccc(F)cc3)n2)C(F)(F)F)cc2cc(C)cnc12` [compound 322, (-)Methoxy-3-Methyl-N-(3,3,3-Trifluoro-2-(5-Fluoro-6-(4-Fluorophenyl)-4-(2-Hydroxypropan-2-yl)Pyridm-2-yl)-2-Hydroxypropyl)Qumolme-6-Carboxamide] are 0.0045 µM and 15 µM.
With `COc1cc(C(=O)NC[C@](O)(c2cc(C(C)(C)O)c(F)c(-c3ccc(F)cc3)n2)C(F)(F)F)cc2cc(CF)cnc12` [compound 324, (-)(Fluoromethyl)-8-Methoxy-N-(3,3,3-Trifluoro-2-(5-Fluoro-6-(4-Fluorophenyl)-4-(2-Hydroxypropan-2-yl)Pyridin-2-yl)-2-Hydroxypropyl)Quinoline-6-Carboxamide], the EC50 in the series with rgRSV224 virus came to 0.012 µM. Moreover, in series [1], half-maximal cytotoxicity (CC50 at 3 days) was put at 4 µM.
The like results for `COc1cc(C(=O)NC[C@](O)(c2cc(C(C)(C)O)c(F)c(-c3ccc(F)cc3)n2)C(F)(F)F)cc2cc(C(F)F)cnc12` [compound 325, (-)(Difluoromethyl)-8-Methoxy-N-(3,3,3-Trifluoro-2-(5-Fluoro-6-(4-Fluorophenyl)-4-(2-Hydroxypropan-2-yl)Pyridin-2-yl)-2-Hydroxypropyl)Quinoline-6-Carboxamide] were, in that order, 0.0036 µM and 13 µM.
On the same counts, the results for `COc1cc(C(=O)NC[C@](O)(c2cc(C(C)(C)O)c(F)c(-c3ccc(F)cc3)n2)C(F)(F)F)cc2cc(C(F)(F)F)cnc12` [compound 326, (-)(Trifluoromethyl)-8-Methoxy-N-(3,3,3-Trifluoro-2-(5-Fluoro-6-(4-Fluorophenyl)-4-(2-Hydroxypropan-2-yl)Pyridin-2-yl)-2-Hydroxypropyl)Quinoline-6-Carboxamide] are 0.026 µM and 13 µM.
